What was measured:
[1] = refractive index (Na D-line) (dimensionless); settings: 298.15 K; 101.33 kPa; Liquid; Standard Abbe refractometry
[2] = Liquid, Vibrating tube method

CC(=O)N(C)C [N,N-dimethylethanamide]
Settings	refractive index
[1]	1.43615

[2]
Settings	mass density [kg/m3]
293.15 K, 300 kPa	941
293.15 K, 2600 kPa	943
293.15 K, 5100 kPa	944
293.15 K, 10100 kPa	947
293.15 K, 14900 kPa	950
293.15 K, 20200 kPa	953
293.15 K, 25200 kPa	955
293.15 K, 30400 kPa	958
298.15 K, 101.33 kPa	936.729
303.2 K, 300 kPa	932
303.2 K, 2500 kPa	933
303.2 K, 5100 kPa	935
303.2 K, 10200 kPa	938
303.2 K, 15200 kPa	941
303.2 K, 20200 kPa	944
303.2 K, 24900 kPa	947
303.2 K, 30200 kPa	950
313.15 K, 100 kPa	922
313.15 K, 2500 kPa	924
313.15 K, 5200 kPa	926
313.15 K, 10000 kPa	929
313.15 K, 15200 kPa	932
313.15 K, 20100 kPa	935
313.15 K, 25200 kPa	938
313.15 K, 30200 kPa	941
323.15 K, 100 kPa	912
323.15 K, 2500 kPa	915
323.15 K, 5000 kPa	917
323.15 K, 10100 kPa	920
323.15 K, 15100 kPa	923
323.15 K, 20100 kPa	927
323.15 K, 25100 kPa	930
323.15 K, 30500 kPa	933
333.15 K, 100 kPa	903
333.15 K, 2500 kPa	906
333.15 K, 5100 kPa	907
333.15 K, 10100 kPa	911
333.15 K, 15100 kPa	915
333.15 K, 20200 kPa	918
333.15 K, 25000 kPa	921
333.15 K, 30100 kPa	924
343.15 K, 100 kPa	894
343.15 K, 2600 kPa	896
343.15 K, 5100 kPa	898
343.15 K, 10000 kPa	902
343.15 K, 15000 kPa	906
343.15 K, 20200 kPa	909
343.15 K, 25100 kPa	913
343.15 K, 30300 kPa	916
353.15 K, 100 kPa	885
353.15 K, 2500 kPa	887
353.15 K, 5200 kPa	889
353.15 K, 10000 kPa	893
353.15 K, 14900 kPa	897
353.15 K, 20200 kPa	901
353.15 K, 25200 kPa	905
353.15 K, 30100 kPa	908
363.15 K, 200 kPa	876
363.15 K, 2500 kPa	878
363.15 K, 5000 kPa	880
363.15 K, 10100 kPa	884
363.15 K, 15200 kPa	888
363.15 K, 20300 kPa	892
363.15 K, 25200 kPa	896
363.15 K, 30000 kPa	899
373.15 K, 100 kPa	866
373.15 K, 2600 kPa	868
373.15 K, 5100 kPa	871
373.15 K, 10000 kPa	875
373.15 K, 15100 kPa	880
373.15 K, 20300 kPa	884
373.15 K, 25100 kPa	888
373.15 K, 30600 kPa	892
383.15 K, 100 kPa	856
383.15 K, 2500 kPa	859
383.15 K, 5000 kPa	861
383.15 K, 10000 kPa	866
383.15 K, 15000 kPa	870
383.15 K, 20300 kPa	875
383.15 K, 25300 kPa	879
383.15 K, 30200 kPa	883
393.15 K, 15000 kPa	870
403.15 K, 100 kPa	837
403.15 K, 2500 kPa	840
403.15 K, 5100 kPa	843
403.15 K, 10200 kPa	848
403.15 K, 15000 kPa	853
403.15 K, 20700 kPa	858
403.15 K, 25200 kPa	862
403.15 K, 30900 kPa	867
413.15 K, 100 kPa	826
413.15 K, 2600 kPa	830
413.15 K, 5000 kPa	833
413.15 K, 10100 kPa	838
413.15 K, 15100 kPa	844
413.15 K, 20100 kPa	849
413.15 K, 25200 kPa	854
413.15 K, 30200 kPa	858

CNC=O [N-methylformamide]
Settings	refractive index
[1]	1.43063

[2]
Settings	mass density [kg/m3]
293.15 K, 200 kPa	1004
293.15 K, 500 kPa	1004
293.15 K, 1000 kPa	1004
293.15 K, 2500 kPa	1005
293.15 K, 5000 kPa	1006
293.15 K, 7600 kPa	1008
293.15 K, 10100 kPa	1009
293.15 K, 15000 kPa	1012
293.15 K, 20100 kPa	1015
293.15 K, 25100 kPa	1017
293.15 K, 30100 kPa	1020
293.15 K, 35000 kPa	1023
298.15 K, 101.33 kPa	999.361
303.15 K, 200 kPa	995
303.15 K, 500 kPa	995
303.15 K, 1100 kPa	995
303.15 K, 2500 kPa	996
303.15 K, 5100 kPa	998
303.15 K, 7600 kPa	999
303.15 K, 10000 kPa	1000
303.15 K, 15100 kPa	1004
303.15 K, 20100 kPa	1006
303.15 K, 25100 kPa	1009
303.15 K, 30000 kPa	1012
303.15 K, 35000 kPa	1014
313.15 K, 200 kPa	986
313.15 K, 500 kPa	986
313.15 K, 1100 kPa	987
313.15 K, 2600 kPa	987
313.15 K, 5100 kPa	989
313.15 K, 7500 kPa	990
313.15 K, 10100 kPa	992
313.15 K, 15000 kPa	995
313.15 K, 20000 kPa	998
313.15 K, 25100 kPa	1001
313.15 K, 30000 kPa	1004
313.15 K, 35000 kPa	1006
323.15 K, 100 kPa	977
323.15 K, 500 kPa	977
323.15 K, 1000 kPa	978
323.15 K, 2500 kPa	979
323.15 K, 5000 kPa	980
323.15 K, 7500 kPa	982
323.15 K, 10000 kPa	984
323.15 K, 15100 kPa	987
323.15 K, 20100 kPa	990
323.15 K, 25000 kPa	993
323.15 K, 30100 kPa	996
323.15 K, 35100 kPa	999
333.15 K, 100 kPa	969
333.15 K, 500 kPa	969
333.15 K, 1000 kPa	969
333.15 K, 2500 kPa	970
333.15 K, 5000 kPa	972
333.15 K, 7500 kPa	974
333.15 K, 10000 kPa	975
333.15 K, 15000 kPa	979
333.15 K, 20100 kPa	982
333.15 K, 25000 kPa	985
333.15 K, 30000 kPa	988
333.15 K, 35000 kPa	990
343.15 K, 100 kPa	960
343.15 K, 500 kPa	960
343.15 K, 1000 kPa	960
343.15 K, 2500 kPa	962
343.15 K, 5100 kPa	963
343.15 K, 7500 kPa	965
343.15 K, 10100 kPa	967
343.15 K, 15100 kPa	970
343.15 K, 20000 kPa	973
343.15 K, 25100 kPa	977
343.15 K, 30100 kPa	980
343.15 K, 35100 kPa	983
353.15 K, 100 kPa	950
353.15 K, 500 kPa	950
353.15 K, 1000 kPa	952
353.15 K, 2500 kPa	953
353.15 K, 5100 kPa	955
353.15 K, 7600 kPa	957
353.15 K, 10000 kPa	958
353.15 K, 15100 kPa	962
353.15 K, 20100 kPa	965
353.15 K, 25000 kPa	969
353.15 K, 30100 kPa	972
353.15 K, 35100 kPa	975
363.15 K, 100 kPa	942
363.15 K, 500 kPa	943
363.15 K, 1000 kPa	943
363.15 K, 2500 kPa	944
363.15 K, 5100 kPa	946
363.15 K, 7600 kPa	948
363.15 K, 10100 kPa	950
363.15 K, 15100 kPa	954
363.15 K, 20100 kPa	957
363.15 K, 25000 kPa	960
363.15 K, 30100 kPa	964
363.15 K, 35000 kPa	967
373.15 K, 100 kPa	934
373.15 K, 500 kPa	934
373.15 K, 1000 kPa	934
373.15 K, 2500 kPa	936
373.15 K, 5100 kPa	938
373.15 K, 7600 kPa	940
373.15 K, 10000 kPa	941
373.15 K, 15100 kPa	945
373.15 K, 20100 kPa	949
373.15 K, 25000 kPa	952
373.15 K, 30100 kPa	956
373.15 K, 35000 kPa	959
398.15 K, 100 kPa	911
398.15 K, 500 kPa	912
398.15 K, 1100 kPa	912
398.15 K, 2500 kPa	913
398.15 K, 5000 kPa	916
398.15 K, 7600 kPa	918
398.15 K, 10000 kPa	920
398.15 K, 15000 kPa	924
398.15 K, 20100 kPa	928
398.15 K, 25000 kPa	932
398.15 K, 30000 kPa	936
398.15 K, 35100 kPa	940
423.15 K, 100 kPa	888
423.15 K, 500 kPa	889
423.15 K, 1000 kPa	889
423.15 K, 2600 kPa	890
423.15 K, 5100 kPa	893
423.15 K, 7500 kPa	896
423.15 K, 10000 kPa	898
423.15 K, 15200 kPa	903
423.15 K, 20100 kPa	907
423.15 K, 25100 kPa	911
423.15 K, 30100 kPa	916
423.15 K, 35100 kPa	920
